Marks after values point to notes of the source that are not given here.
Key:
O-Phenanthroline assay = settings: concentration at 0.50 absorbance
Method: (§1) All experiments were realized in 96-well microplates, and the absorbance measurements were carried out on a Multimode Plate Reader, EnSpire, PerkinElmer, Waltham (US) United States of America. […] The results were expressed as 50% inhibition (IC50) and absorbance at 0.5 (A0.5) concentrations that are able to inhibit/block/chelate 50% or reduce the absorbance to 0.5 of the radical, enzyme catalytic sites or the formation of metallic complexes/cations.
Next, it was incubated for 20 min at 30 °C before measuring the absorbance at 510 nm. The result was given as A0.5 value.

[1] = Silver nanoparticle-based method (SNP)
Method: as §1
The reduction of Ag^+ to spherical silver nanoparticles (SNPs) was developed by Özyürek et al.. […] The microplate was incubated for 30 min at 25 °C, and the absorbance was read at 423 nm. […]

[2] = Cupric reducing antioxidant capacity (CUPRAC) assay; settings: concentration at 0.50 absorbance
Method: as §1
The method described by Reference was used with no modifications. […] The result was given as A0.5 value.

Reducing power test = settings: concentration at 0.50 absorbance
Method: as §1
Later, 50 μL of TCA (trichloroacetic acid) (10%) and 10 μL of ferric chloride (0.1%) were added before finally measuring the mixture’s absorbance at 700 nm.

[3] = Galvinoxyl radical (GOR) scavenging assay
Method: as §1
The result was given as IC50 value.

[4] = Hydroxyl radical scavenging assay
Method: as §1
It was evaluated according to the modified method of Smirnoff and Cumbes. […] The microplate was incubated for 30 min at 37 °C, and 36 μL H2O was added; immediately, the absorbance was measured at 510 nm. The result was given as IC50 value.

[5] = DPPH scavenging procedure
Method: as §1
Results were provided as IC50 values, and the I% were calculated using the above formula (*).

[6] = ABTS scavenging procedure
Method: as §1
The ABTS^•+ scavenging ability was performed spectrophotometrically according to the modified procedure of Re et al.. First, the ABTS^•+ was prepared as follows: 2 mM of ABTS was dissolved in H2O with 2.45 mM potassium persulfate (K2S2O8), and the mixture was conserved at ambient temperature for 16 h in obscurity. […] Thereafter, the microplate was incubated for 10 min before measuring the absorbance at 734 nm. The equation below (*) was used to calculate the inhibition percentage of ABTS radical, and results were presented as IC50 values. I% = ((Ac − As)/Ac) × 100 (*)(1)

[7] = β-Carotene/linoleic acid bleaching test
Method: as §1
Proceeding as described by Marco [23], with minor changes: 0.5 mg of β-carotene, 1 mL of chloroform, 25 μL of linoleic acid, and 200 μL of Tween 40 were added, forming an emulsified mixture. Then, it was evaporated under vacuum, and 50 mL of hydrogen peroxide (30%) were added with vigorous shaking. The absorbance at 470 nm should give a value between (0.8–0.9).

urease = target: T1, urease (Canavalia ensiformis, UniProt P07374); type: biochemical, Canavalia ensiformis (Jack bean)
T1 construct: purchased Sigma Aldrich
Method: Ultrapure water was obtained by a Milli-Q system (Millipore, Bedford, MA, USA).
All experiments were realized in 96-well microplates, and the absorbance measurements were carried out on a Multimode Plate Reader, EnSpire, PerkinElmer, Waltham (US) United States of America. […] The EamCE solution was prepared at seven different concentrations, (800, 400, 200, 100, 50, 25, 12.5 µg/mL) and every assay was realized in triplicate. The results were expressed as 50% inhibition (IC50) and absorbance at 0.5 (A0.5) concentrations that are able to inhibit/block/chelate 50% or reduce the absorbance to 0.5 of the radical, enzyme catalytic sites or the formation of metallic complexes/cations.
Urease inhibitory capability was determined by measuring ammonia production using the indophenol method [35]. Briefly, the reaction mixture consisted of 25 μL of enzyme solution ((5 U/mL) (Jack bean urease)), 10 μL of the EamCE solution, and 50 μL of urea substrate solution, then it was incubated at 30 °C for 15 min. Then, 45 μL of phenol reagent (2 g of phenol (C6H5OH) in 25 mL H2O + 25 mg of Na2[Fe(CN)5NO],2H2O in 25 mL H2O) and 70 μL of basic reagent (0.7125 g of NaOH in 25 mL H2O + 1.175 mL of NaOCl in 25 mL H2O) were added later. After 50 min of incubation, the absorbance was measured at 630 nm, and result was given as IC50 value.

[8] = Superoxide alkaline DMSO test
Method: as §1
The superoxide radical was produced as described Kunchandy’s method: 30 µL of NBT (nitroblue tetrazolium) (1 mg/mL) and 40 μL of sample were added to 130 μL alkaline DMSO (1.0 mL DMSO, 5 mMNaOH, 100 µL H2O). The absorbance of the reaction mixture was measured at 560 nm, and results were provided as IC50 values.

T1 sequence (P07374 whole entry, looked up): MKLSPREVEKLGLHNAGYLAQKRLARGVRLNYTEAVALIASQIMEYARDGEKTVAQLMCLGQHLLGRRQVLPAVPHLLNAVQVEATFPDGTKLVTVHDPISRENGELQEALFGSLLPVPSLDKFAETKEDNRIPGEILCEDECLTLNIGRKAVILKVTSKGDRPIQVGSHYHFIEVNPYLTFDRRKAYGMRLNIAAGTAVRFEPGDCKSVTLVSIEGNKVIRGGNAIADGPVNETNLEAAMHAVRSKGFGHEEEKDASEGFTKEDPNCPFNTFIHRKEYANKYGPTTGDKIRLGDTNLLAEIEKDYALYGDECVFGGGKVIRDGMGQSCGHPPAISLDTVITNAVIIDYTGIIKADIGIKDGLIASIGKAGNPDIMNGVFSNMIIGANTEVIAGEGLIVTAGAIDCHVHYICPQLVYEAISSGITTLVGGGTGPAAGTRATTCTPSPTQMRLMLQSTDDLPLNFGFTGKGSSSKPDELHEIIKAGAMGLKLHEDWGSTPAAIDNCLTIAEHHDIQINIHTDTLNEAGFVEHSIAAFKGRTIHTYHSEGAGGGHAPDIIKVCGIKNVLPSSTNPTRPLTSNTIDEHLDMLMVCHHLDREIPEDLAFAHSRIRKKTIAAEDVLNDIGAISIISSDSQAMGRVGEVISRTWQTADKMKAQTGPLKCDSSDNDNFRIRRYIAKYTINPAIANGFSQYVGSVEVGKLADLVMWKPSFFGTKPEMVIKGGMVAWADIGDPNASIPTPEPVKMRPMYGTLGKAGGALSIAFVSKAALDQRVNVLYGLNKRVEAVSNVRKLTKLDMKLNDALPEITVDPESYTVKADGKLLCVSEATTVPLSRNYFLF

| Compound | Phenonthroline (A0.5) (O-Phenanthroline assay) | SNP [1] | CUPRAC (A0.5) [2] | Reducing Power (A0.5) (Reducing power test) | GOR (IC50) [3] | Hydroxyl Radical (IC50) [4] | DPPH (IC50) [5] | ABTS (IC50) [6] | Beta Carotene (IC50) [7] | Anti-Urease IC50 (urease) | DMSO Alcalin (IC50) [8] |
| --- | --- | --- | --- | --- | --- | --- | --- | --- | --- | --- | --- |
| O=C1O[C@H]([C@@H](O)CO)C(O)=C1O [Ascorbic Acid] | 3.08 ± 0.02 ^d µg/mL | 7.14 ± 0.05 ^b µg/mL | 8.31 ± 0.15 ^d µg/mL | 6.77 ± 1.15 ^c µg/mL | 5.02 ± 0.01 ^d µg/mL | 32.33 ± 1.17 ^b µg/mL |  |  |  |  |  |
| COc1ccc(O)c(C(C)(C)C)c1 [BHA] | 0.93 ± 0.07 ^c µg/mL |  | 5.35 ± 0.71 ^c µg/mL |  | 3.32 ± 0.18 ^c µg/mL |  | 6.14 ± 0.41 ^c µg/mL | 1.81 ± 0.10 ^c µg/mL | 0.91 ± 0.01 ^c µg/mL |  |  |
| Cc1cc(C(C)(C)C)c(O)c(C(C)(C)C)c1 [BHT] | 2.24 ± 0.17 ^b µg/mL |  | 8.97 ± 3.94 ^b µg/mL |  | 5.38 ± 0.06 ^b µg/mL |  | 12.99 ± 0.41 ^b µg/mL | 1.29 ± 0.30 ^b µg/mL | 1.05 ± 0.03 ^b µg/mL |  |  |
| NC(N)=S [Thiourea] |  |  |  |  |  |  |  |  |  | 11.57 ± 0.68 ^b µg/mL |  |
| Cc1c(C)c2c(c(C)c1O)CCC(C)(C(=O)O)O2 (stereo not shown) [Trolox] | 5.21 ± 0.27 ^e µg/mL | 34.17 ± 1.23 ^c µg/mL | 8.69 ± 0.14 ^e µg/mL | 5.25 ± 0.20 ^e µg/mL | 4.31 ± 0.05 ^e µg/mL |  | 5.12 ± 0.21 ^e µg/mL | 3.21 ± 0.06 ^d µg/mL |  |  |  |
| Cc1c(C)c2c(c(C)c1O)CC[C@@](C)(CCC[C@H](C)CCC[C@H](C)CCCC(C)C)O2 [α-Tocopherol] |  |  |  | 34.93 ± 2.38 ^b µg/mL |  |  | 13.02 ± 5.17 ^d µg/mL |  |  |  | ˂3.125 µg/mL |
| Tannic Acid |  |  |  | 5.39 ± 0.91 ^d µg/mL |  |  |  |  |  |  | <3.125 µg/mL |

From publication PMC8774970 (Foods, 2022)
